According to PMC9146161, “Novel Thienyl-Based Tyrosine Kinase Inhibitors for the Treatment of Hepatocellular Carcinoma” (Journal of Personalized Medicine, 2022):
pIC50: −log10 of the molar value.

Target: T1, VEGFR-2 (Homo sapiens, UniProt P35968)
T1 construct: gene KDR
Assay: cell-free enzymatic kinase assay (Eurofins KinaseProfiler), dose-response […]
Type: biochemical

T1 sequence (P35968 20-1356): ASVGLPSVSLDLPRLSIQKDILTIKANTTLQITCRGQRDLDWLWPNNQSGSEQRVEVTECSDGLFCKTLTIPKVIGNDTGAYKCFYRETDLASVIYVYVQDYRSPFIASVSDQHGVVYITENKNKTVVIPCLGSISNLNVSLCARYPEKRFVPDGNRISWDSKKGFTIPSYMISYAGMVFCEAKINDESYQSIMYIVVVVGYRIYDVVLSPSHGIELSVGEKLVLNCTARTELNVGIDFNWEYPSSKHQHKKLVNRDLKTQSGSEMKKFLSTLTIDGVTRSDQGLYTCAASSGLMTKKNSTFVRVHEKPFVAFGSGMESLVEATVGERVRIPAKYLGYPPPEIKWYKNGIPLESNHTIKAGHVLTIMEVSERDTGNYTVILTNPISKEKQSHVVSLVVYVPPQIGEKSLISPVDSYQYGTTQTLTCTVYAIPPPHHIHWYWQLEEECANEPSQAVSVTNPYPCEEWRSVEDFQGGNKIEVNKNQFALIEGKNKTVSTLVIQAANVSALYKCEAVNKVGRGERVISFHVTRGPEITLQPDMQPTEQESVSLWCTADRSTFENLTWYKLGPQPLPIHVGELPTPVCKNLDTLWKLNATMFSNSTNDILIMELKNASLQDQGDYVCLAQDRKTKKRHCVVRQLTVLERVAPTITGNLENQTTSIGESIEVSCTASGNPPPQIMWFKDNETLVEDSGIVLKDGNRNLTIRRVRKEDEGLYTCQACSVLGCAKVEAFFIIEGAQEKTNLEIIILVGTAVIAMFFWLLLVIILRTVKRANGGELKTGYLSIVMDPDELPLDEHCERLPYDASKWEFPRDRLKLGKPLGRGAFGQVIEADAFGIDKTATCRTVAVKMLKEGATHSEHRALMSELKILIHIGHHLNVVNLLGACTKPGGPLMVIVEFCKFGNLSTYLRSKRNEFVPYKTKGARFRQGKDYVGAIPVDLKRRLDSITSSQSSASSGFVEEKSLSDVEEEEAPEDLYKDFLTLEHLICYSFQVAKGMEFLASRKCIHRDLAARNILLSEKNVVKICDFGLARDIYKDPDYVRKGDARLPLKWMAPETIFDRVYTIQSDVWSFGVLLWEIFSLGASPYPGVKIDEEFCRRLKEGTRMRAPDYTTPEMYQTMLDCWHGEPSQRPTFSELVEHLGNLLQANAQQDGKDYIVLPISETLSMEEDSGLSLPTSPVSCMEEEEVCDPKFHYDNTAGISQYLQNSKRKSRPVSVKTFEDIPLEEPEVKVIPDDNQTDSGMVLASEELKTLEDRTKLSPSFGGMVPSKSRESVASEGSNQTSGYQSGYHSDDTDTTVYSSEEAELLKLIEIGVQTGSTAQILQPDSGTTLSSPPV

- pIC50: 5.48
SMILES: COc1ccc(/C=C(\C#N)c2cccs2)cc1O [Thio-Iva]
